The source of these data is BindingDB's records for doi:10.7270/Q2KD1WBN (Burnham Center For Chemical Genomics, 2010).

This assay deals with Envelope glycoprotein gp160 (Human immunodeficiency virus 1, UniProt Q6QLK5). Kind of assay: blockers of HIV fusion peptide binding, cell-free – biochemical, fluorescence quenching, SAR follow-up (AID 434967).
Chain of Envelope glycoprotein gp160 (Q6QLK5 whole entry, the tested form may be a part): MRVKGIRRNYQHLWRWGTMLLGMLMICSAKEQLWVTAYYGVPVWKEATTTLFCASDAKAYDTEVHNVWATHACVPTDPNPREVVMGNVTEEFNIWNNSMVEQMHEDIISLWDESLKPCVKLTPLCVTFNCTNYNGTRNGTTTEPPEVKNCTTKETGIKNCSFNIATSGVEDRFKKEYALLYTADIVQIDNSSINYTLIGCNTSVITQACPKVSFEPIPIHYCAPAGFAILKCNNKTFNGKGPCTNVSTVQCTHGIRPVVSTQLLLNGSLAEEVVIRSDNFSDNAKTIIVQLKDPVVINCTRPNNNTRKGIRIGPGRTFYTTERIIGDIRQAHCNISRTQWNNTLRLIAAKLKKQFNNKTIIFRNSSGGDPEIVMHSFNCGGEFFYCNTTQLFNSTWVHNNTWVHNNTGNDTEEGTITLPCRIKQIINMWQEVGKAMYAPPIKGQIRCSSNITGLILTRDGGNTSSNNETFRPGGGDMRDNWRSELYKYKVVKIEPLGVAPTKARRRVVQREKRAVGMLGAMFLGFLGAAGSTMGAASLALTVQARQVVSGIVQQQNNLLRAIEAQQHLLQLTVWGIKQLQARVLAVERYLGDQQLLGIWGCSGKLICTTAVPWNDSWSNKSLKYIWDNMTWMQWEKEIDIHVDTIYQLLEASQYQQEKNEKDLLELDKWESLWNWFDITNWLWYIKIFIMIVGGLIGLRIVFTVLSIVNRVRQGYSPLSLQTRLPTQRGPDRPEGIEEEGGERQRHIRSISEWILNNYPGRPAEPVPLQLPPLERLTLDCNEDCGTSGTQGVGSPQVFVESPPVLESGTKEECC
For `Cc1c(Cl)cccc1NS(=O)(=O)c1ccc2c(c1)C1C=CCC1C(c1ccc(C(=O)O)cc1)N2` (stereo not drawn), the IC50 amounted to 3.16 µM. The same measure for `CS(=O)(=O)C1=NSC2=NC(=O)/C(=C\c3cccn3-c3ccc(Cl)cc3)C(=N)N21`: 5.7 µM; for `COc1cc(/C=C2\SC(=O)N(c3ccccc3Cl)C2=O)cc([N+](=O)[O-])c1O`: 9.04 µM.

In turn, `N#C/C(=C\C1C=CC(=O)C([N+](=O)[O-])=C1)c1nc2ccccc2s1` (stereo not drawn) registered a half-maximal inhibitory concentration (IC50) of 6.25 µM.

On to `CCC(Sc1nc2ccsc2c(=O)n1Cc1ccc(C(=O)O)cc1)C(=O)Nc1ccc(C)c(Cl)c1` (stereo not drawn), for which the IC50 came out at 8.01 µM.

Turning to `CS(=O)(=O)C1=NSC2=NC(=O)/C(=C\c3ccc(OS(=O)(=O)c4ccccc4)cc3)C(=N)N21`, the IC50 turned out to be 7.73 µM. Under `CCOc1cc(/C=C2\SC(=O)N(CC(=O)Nc3ccccc3F)C2=O)cc([N+](=O)[O-])c1O` stands 4.32 µM; under `O=C1Nc2ccc([N+](=O)[O-])cc2C1=NNc1ccccc1C(=O)O` [2-[2-(5-nitro-2-oxidanylidene-indol-3-yl)hydrazinyl]benzoic acid], 13.3 µM; under `CCOC(=O)C1=C(C)N=c2sc(=Cc3ccc(OCC(=O)O)cc3)c(=O)n2C1c1ccc(OC(C)C)cc1` (stereo not drawn) [2-[4-[[6-ethoxycarbonyl-7-methyl-3-oxo-5-(4-propan-2-yloxyphenyl)-5H-[1,3]thiazolo[3,2-a]pyrimidin-2-ylidene]methyl]phenoxy]acetic acid], 6.64 µM. In turn, `O=c1/c(=C/c2cc([N+](=O)[O-])cc([N+](=O)[O-])c2O)sc2nc3ccccc3n12` [2-[(2-hydroxy-3,5-dinitrophenyl)methylidene]-1-thiazolo[3,2-a]benzimidazolone] returned an IC50 of 2.61 µM. On to `CCC(C)(C)C1CCc2c(sc(NC(=O)c3ccccc3C(=O)O)c2C#N)C1` (stereo not drawn) [2-[[3-cyano-6-(2-methylbutan-2-yl)-4,5,6,7-tetrahydro-1-benzothiophen-2-yl]carbamoyl]benzoic acid], for which the IC50 was 6.1 µM.

Regarding `O=C(O)c1ccccc1C(=O)N(Cc1cccc(Oc2ccc(Cl)cc2)c1)[C@H]1CCCc2ccccc21` [2-[[[3-(4-chlorophenoxy)phenyl]methyl-[(1S)-1,2,3,4-tetrahydronaphthalen-1-yl]amino]-oxomethyl]benzoic acid], the IC50 was 2.6 µM. Under `COc1cc(CN=Nc2ccc(Cl)c(C(=O)O)c2)ccc1OC(=O)c1ccc(F)cc1` [2-chloro-5-[2-[[4-[(4-fluorophenyl)-oxomethoxy]-3-methoxyphenyl]methylidene]hydrazinyl]benzoic acid] stands 8.03 µM.

`CC(C)S(=O)(=O)C1=NSC2=NC(=O)/C(=C\c3ccc(-c4cccc(C(=O)O)c4)o3)C(=N)N21` [3-[5-[(Z)-(5-imino-7-oxo-3-propan-2-ylsulfonyl-[1,2,4]thiadiazolo[4,5-a]pyrimidin-6-ylidene)methyl]furan-2-yl]benzoic acid] came in with an IC50 of 4.49 µM.

Turning to `O=[N+]([O-])c1cc([N+](=O)[O-])c2oc(-c3ccccc3)c(Br)c2c1O` [3-bromanyl-5,7-dinitro-2-phenyl-1-benzofuran-4-ol], the 50% inhibitory concentration (IC50) was determined as 14.5 µM. Compound `O=C(O)CCCN1C(=O)/C(=C/c2ccc(-c3nc4ccccc4s3)o2)SC1=S` [4-[(5Z)-5-[[5-(1,3-benzothiazol-2-yl)furan-2-yl]methylidene]-4-oxo-2-sulfanylidene-1,3-thiazolidin-3-yl]butanoic acid] came in with an IC50 of 1.76 µM.

`CC(C)(C)c1cc(-c2cs/c(=N\c3ccccc3)n2Cc2ccc(C(=O)O)cc2)cc(C(C)(C)C)c1O` [4-[[4-(3,5-ditert-butyl-4-oxidanyl-phenyl)-2-phenylazanyl-1,3-thiazol-3-ium-3-yl]methyl]benzoic acid;bromide] returned a 50% inhibitory concentration (IC50) of 27.3 µM.

In the case of `Cc1ccc(S(=O)(=O)Oc2ccc(/C=C3/C(=N)N4C(=NC3=O)SN=C4S(C)(=O)=O)cc2)cc1` [4-methylbenzenesulfonic acid [4-[(Z)-(5-imino-3-methylsulfonyl-7-oxo-[1,2,4]thiadiazolo[4,5-a]pyrimidin-6-ylidene)methyl]phenyl] ester], the IC50 worked out at 6.51 µM.

Consider `O=C1NC(=S)N(c2ccc(F)cc2)C(=O)C1=Cc1ccco1` [(5E)-1-(4-fluorophenyl)-5-(2-furanylmethylidene)-2-sulfanylidene-1,3-diazinane-4,6-dione], for which the IC50 turned out to be 10 µM. Take `Cc1cc(C)cc(-n2cccc2/C=C2/C(=N)N3C(=NC2=O)SN=C3S(C)(=O)=O)c1` [(6Z)-5-azanylidene-6-[[1-(3,5-dimethylphenyl)pyrrol-2-yl]methylidene]-3-methylsulfonyl-[1,2,4]thiadiazolo[4,5-a]pyrimidin-7-one]: the IC50 worked out at 7.81 µM.

With `CC(C)S(=O)(=O)C1=NSC2=NC(=O)/C(=C\c3ccc(-c4ccccc4)o3)C(=N)N21` [(6Z)-5-imino-6-[(5-phenyl-2-furanyl)methylidene]-3-propan-2-ylsulfonyl-[1,2,4]thiadiazolo[4,5-a]pyrimidin-7-one], the IC50 was 9.65 µM. Under `CSc1nnc(-c2ccccc2N=Cc2c(C)[nH]n(-c3ccc4ccccc4c3)c2=O)c(=O)[nH]1` [MLS000540062] stands 9.84 µM; under `Cc1ccc(-n2cccc2/C=C2/C(=N)N3C(=NC2=O)SN=C3S(C)(=O)=O)cc1Cl` [MLS000583163], 5.76 µM; under `CC1(C)CC(=O)C2=C(C1)c1c(ccc3ccccc13)NC2c1cc([N+](=O)[O-])cc([N+](=O)[O-])c1O` (stereo not drawn) [MLS000716265], 13.5 µM.

`Cc1c2c(=O)n(-c3nc4ccccc4s3)[nH]c2cc(=O)n1Cc1ccccc1` [MLS000762993]: the IC50 amounted to 10.1 µM. The same measure for `COc1ccccc1NS(=O)(=O)c1cccc(-n2c(O)c(C=Nc3ccccc3C(=O)O)c3ccccc3c2=O)c1` [MLS000776209]: 9.64 µM. For `COc1ccc(OC)c(N2C(=O)C(=Cc3ccco3)C(=O)NC2=S)c1` [MLS001197216], the IC50 was 6.06 µM. Under `COc1cc(/C=N/NS(=O)(=O)c2ccc3ccccc3c2)ccc1OCc1ccc(C(=O)O)cc1` [MLS-0298745.0001] stands 7.76 µM; under `O=C(O)c1cc(N=NCc2ccc(-c3ccccc3)cc2)ccc1Cl` [MLS-0319671.0001], 14.8 µM. The same measure for `CCS(=O)(=O)C1=NSC2=NC(=O)/C(=C\c3ccc(OS(=O)(=O)c4ccccc4)cc3)C(=N)N21` [MLS-0362442.0001]: 11.5 µM; for `CC(C)NC(=O)c1sc(=S)n2c1[nH]c(=O)c1ccc(C(=O)NCCc3ccc(Cl)cc3)cc12` [N8-[2-(4-chlorophenyl)ethyl]-5-oxidanylidene-N3-propan-2-yl-1-sulfanylidene-4H-[1,3]thiazolo[3,4-a]quinazoline-3,8-dicarboxamide]: 9.56 µM. Under `O=C1NC(=S)N(C2CCCCC2)C(=O)C1=CNNC(=O)c1ccccc1O` [N'-[(E)-(1-cyclohexyl-4,6-dioxo-2-sulfanylidene-1,3-diazinan-5-ylidene)methyl]-2-hydroxybenzohydrazide] stands 9 µM. `O=C1NC(=S)N(c2ccc(F)cc2)C(=O)C1=Cc1ccoc1` [SMR000270574] registered an IC50 of 8.59 µM. The same measure for `Cc1ccc(-n2c(O)c(C=Nc3ccccc3-c3n[nH]c(=S)[nH]c3=O)c3ccccc3c2=O)c(C)c1` [SMR000370443]: 5.76 µM; for `COC(=O)c1sc(-c2ccc(C(C)(C)C)cc2)cc1NC(=O)c1ccccc1C(=O)O` [SMR000456098]: 5.94 µM. The same measure for `COc1cc(CN=Nc2ccc(Cl)c(C(=O)O)c2)ccc1OC(=O)c1ccccc1F` [SMR000589905]: 25.9 µM. Take `COc1ccc(C(=O)Oc2ccc(CN=Nc3ccc(Cl)c(C(=O)O)c3)cc2OC)cc1` [SMR000589907]: the IC50 turned out to be 5.16 µM.

For the compound `CCOC(=O)c1sc(N2C(=O)C(=O)C(C(=O)c3ccc(C)o3)C2c2cccc([N+](=O)[O-])c2)nc1C` (stereo not drawn) [ethyl 4-methyl-2-[3-(5-methylfuran-2-yl)carbonyl-2-(3-nitrophenyl)-4-oxidanyl-5-oxidanylidene-2H-pyrrol-1-yl]-1,3-thiazole-5-carboxylate], the IC50 came out at 10.5 µM.

For orientation: IC50 means the concentration that gives 50% inhibition.
